# Results taken from article PMC12142043, “Cell-based high-content approach for SARS-CoV-2 neutralization identifies unique monoclonal antibodies and PI3K pathway inhibitors” (Frontiers in Cell and Developmental Biology, 2025).
# Where a name gives a salt, the structure may show the parent alone. Read-outs that look alike come from different tables or passages of the source.
# Key:
# [1] = system: SARS-CoV-2 (USA-WA1/2020) in Calu-3 cells; assay: microbe, parasite or virus in culture; type: cell-based; details: for EC50: read-out: EC50 (μM) dsRNA; for Effect on dsRNA / virus in dose response: Figure 5C-F
# [2] = system: SARS-CoV-2 (USA-WA1/2020) in Calu-3 cells; type: cell-based; details: for dsRNA signal, AU High: high dose (10 µM); for dsRNA signal, AU High / dsRNA signal, AU Low: Calu-3, 48 h; for dsRNA signal, AU Low: low dose (100 nM)
# Calu-3 cells [3] = assay: cells; details: Homo sapiens, Calu-3, read-out: EC50 (μM) Cell count
# [4] = system: Calu-3 cells infected with SARS-CoV-2; type: cell-based, human; design: key to Grouping with red cluster (mock control) in UMAP: *: Clusters with mock control in high-dose treatment; details: for Grouping with red cluster (mock control) in UMAP: high-dose treatment; for Shift in UMAP space with increasing concentration: Figure 5C-F
# Calu-3 cells [5] = details: for Effect on host cell viability and morphology: Figure 5C-F; for EC50: read-out: EC50 (μM) Cell count, Calu-3, DAPI-stained nuclei, above 30 μM reported as >30
# [6] = […], above 30 μM reported as >30
# [7] = Severe acute respiratory syndrome coronavirus 2, Calu-3, 48 h, […], above 30 μM reported as >30
# [8] = fold: cell count EC50 over dsRNA EC50
# [9] = listed as Flavopiridol hydrochloride
Structure (SMILES),"dsRNA signal, AU High [2] [AU]","dsRNA signal, AU Low [2] [AU]",EC50 (Calu-3 cells [3]) [µM],"EC50 [1, 7] [µM]","Selectivity index [1, 8]",Grouping with red cluster (mock control) in UMAP [4],further results
"COCCOc1cnc2ccn([C@H](C)c3nnc4c(F)cc(-c5cnn(C)c5)cn34)c(=O)c2c1 [AMG 337, reference compound]",6788.1,33845.4,> 30,–,–,–,"EC50 (μM) dsRNA [1, 6]: None"
O=C(NC1CCNCC1)c1[nH]ncc1NC(=O)c1c(Cl)cccc1Cl [AT7519],23488.0,46607.1,0.646,1.23,0.525,–,–
COc1cc([C@@H]2c3cc4c(cc3[C@H](O)[C@H]3COC(=O)[C@@H]23)OCO4)cc(OC)c1OC [AXL1717],13380.1,31807.4,0.82,0.00332,246.615,AXL1717*,–
CC[C@H](Nc1ncnc2[nH]cnc12)c1nc2cccc(F)c2c(=O)n1-c1ccccc1 [CAL-101],57616.6,3708.3,> 30,0.0521,>575,–,–
CCc1cc2c(cc1N1CCC(N3CCOCC3)CC1)C(C)(C)c1[nH]c3cc(C#N)ccc3c1C2=O [CH5424802],–,–,> 30,> 30,–,–,Effect on dsRNA / virus in dose response [1]: reduced dsRNA very well; Shift in UMAP space with increasing concentration [4]: adjacent yellow cluster; Effect on host cell viability and morphology (Calu-3 cells [5]): blebbing and general toxicity
N#CCNC(=O)c1ccc(-c2ccnc(Nc3ccc(N4CCOCC4)cc3)n2)cc1 [CYT387],36485.3,15837.3,2.41,0.0276,87.486,–,–
"O=C(O[C@@H]1Cc2c(O)cc(O)cc2O[C@@H]1c1cc(O)c(O)c(O)c1)c1cc(O)c(O)c(O)c1 [Epigallocatechin gallate (EGCG), Epigallocatechin gallate]",14230.9,24448.0,–,–,–,Epigallocatechin gallate (EGCG)*,"EC50 (μM) dsRNA [1, 6]: None; EC50 (Calu-3 cells [5]): > 30 µM"
CN1CC[C@H](c2c(O)cc(O)c3c(=O)cc(-c4ccccc4Cl)oc23)[C@H](O)C1 [Flavopiridol HCl],–,–,0.364,11.4,0.032,Flavopiridol HCl*,"dsRNA signal, AU High [2, 9]: 187.1 AU; dsRNA signal, AU Low [2, 9]: 16139.6 AU"
"CC(C)NC[C@@H](C(=O)N1CCN(c2ncnc3c2[C@H](C)C[C@H]3O)CC1)c1ccc(Cl)cc1 [GDC-0068, reference compound]",10110.1,18551.4,> 30,> 30,–,–,–
CC1(C)OCCn2c1nc1c(N3CCOCC3)nc(-c3cnc(N)nc3)nc12 [GDC-0084],–,–,1.31,1.5,0.873,GDC-0084*,–
Cc1c(Cn2c(C)nc3c(C(=O)O)cc(N4CCOCC4)cc32)cccc1C(F)(F)F [GSK2636771],841.3,28354.9,> 30,0.319,>94,GSK2636771*,Effect on dsRNA / virus in dose response [1]: reduction of dsRNA; Shift in UMAP space with increasing concentration [4]: shift closer to cluster 1 controls; Reduction of infection in representative images ([2]; Figure 4A): reduced infection greatly; Effect on host cell viability and morphology (Calu-3 cells [5]): minimal effect on host cell viability and morphology
"O=c1c(-c2ccc(O)cc2)coc2cc(O)cc(O)c12 [Genistein, reference compound]",5526.1,19461.3,> 30,–,–,–,"EC50 (μM) dsRNA [1, 6]: None"
C=CC(=O)N1CCC[C@@H](n2nc(-c3ccc(Oc4ccccc4)cc3)c3c(N)ncnc32)C1 [Ibrutinib],3646.9,17695.2,> 30,13.7,–,–,Effect on dsRNA / virus in dose response [1]: did block the virus in high concentrations; Effect on host cell viability and morphology (Calu-3 cells [5]): significant cell toxicity
O=C1Nc2ccccc2/C1=C1/Nc2ccccc2C1=O [Indirubin],–,–,> 30,–,–,–,"Selectivity index [1]: >26; EC50 ([1]; Severe acute respiratory syndrome coronavirus 2, Calu-3, 48 h): 1.14 µM"
Cl.Cl.O=C(Cc1ccc(-c2ccc(OCCN3CCOCC3)cc2)cn1)NCc1ccccc1 [KX2-391 dihydrochloride],1685.1,2878.5,–,–,0.016,–,"EC50 [1, 6]: 8.72 µM; EC50 (Calu-3 cells [5]): 0.136 µM"
Cc1ccc(F)c(NC(=O)Nc2ccc(-c3cccc4[nH]nc(N)c34)cc2)c1 [Linifanib],6252.9,21480.2,> 30,20.5,>1.4,–,–

Structure (SMILES),"dsRNA signal, AU High [2] [AU]","dsRNA signal, AU Low [2] [AU]",EC50 (Calu-3 cells [3]) [µM],"EC50 [1, 7] [µM]","Selectivity index [1, 8]",Grouping with red cluster (mock control) in UMAP [4],further results
O=C(Nc1ncc(SCCN2CCCC2)s1)[C@]1(c2ccc(S(=O)(=O)C3CC3)cc2)C[C@H]1C1CCCCC1 [Ly2608204],–,–,–,–,<0.69,Ly2608204*,"EC50 [1, 6]: > 30 µM; EC50 (Calu-3 cells [5]): 20.9 µM"
C[C@@H](NC(=O)c1ncnc(N)c1Cl)c1ncc(C(=O)Nc2cc(C(F)(F)F)c(Cl)cn2)s1 [MLN 2480],–,–,> 30,0.0998,>300,–,–
CN1CCN(c2ccc(OC(F)(F)F)c(Nc3ncc4c(n3)-c3c(c(C(N)=O)nn3CCO)CC4)c2)CC1 [NMS-1286937],5848.8,38547.7,0.0916,17.8,0.005,–,–
CN(c1ncccc1CNc1nc(Nc2ccc3c(c2)CC(=O)N3)ncc1C(F)(F)F)S(C)(=O)=O [PF-00562271],–,36485.5,–,–,0.510,PF-00562271*,"EC50 [1, 6]: 8.6 µM; EC50 (Calu-3 cells [5]): 4.39 µM"
Cc1ccc(Nc2nccc(N(C)c3ccc4c(C)n(C)nc4c3)n2)cc1S(N)(=O)=O.Cl [Pazopanib HCl],14157.8,9479.9,–,–,>3.5,Pazopanib HCl*,"EC50 [1, 6]: 8.64 µM; EC50 (Calu-3 cells [5]): > 30 µM"
CCOc1cc2ncc(C#N)c(Nc3ccc(F)c(Cl)c3)c2cc1NC(=O)/C=C/CN(C)C [Pelitinib],–,–,5.88,–,–,Pelitinib*,"EC50 (μM) dsRNA [1, 6]: None"
Cc1ncc(CO)c(CO)c1O [Pyridoxine],17847.0,29400.2,> 30,> 30,–,Pyridoxine*,–
"COc1cc(Nc2ncc(F)c(Nc3ccc4c(n3)NC(=O)C(C)(C)O4)n2)cc(OC)c1OC [R406, reference compound]",5357.1,30563.4,–,–,–,–,"EC50 (μM) dsRNA [1, 6]: None; EC50 (Calu-3 cells [5]): 1.84 µM"
CNC(=O)c1cc(Oc2ccc(NC(=O)Nc3ccc(Cl)c(C(F)(F)F)c3)c(F)c2)ccn1 [Regorafenib monohydrate],7085.4,14285.8,> 30,6.46,>4,–,–
"Cn1c(=O)c(F)c(Nc2ccc(I)cc2F)c2c(=O)n(C[C@@H](O)CO)cnc21 [TAK-733, reference compound]",15107.2,14755.9,> 30,> 30,–,–,–
Cc1cnc(Nc2ccc(OCCN3CCCC3)cc2)nc1Nc1cccc(S(=O)(=O)NC(C)(C)C)c1 [TG101348],3065.1,15118.2,1.61,–,–,TG101348*,"EC50 (μM) dsRNA [1, 6]: None"
O=C1NC(=O)[C@@H](c2cn3c4c(cccc24)CCC3)[C@@H]1c1c[nH]c2ccccc12 [Tivantinib],46631.5,19485.6,2.21,> 30,<.07,–,–
CC(=O)Nc1cccc(-n2c(=O)n(C3CC3)c(=O)c3c(Nc4ccc(I)cc4F)n(C)c(=O)c(C)c32)c1 [Trametinib],36456.5,10541.3,> 30,0.398,>75,–,–
CCOC(=O)C1=C[C@]2(CC)CCCN3CCc4c(n1c1ccccc41)[C@@H]32 [Vinpocetine],5212.2,19993.1,> 30,25.7,>1,–,–
CC(C)c1cc(CNc2nc(Nc3cc(C4CC4)[nH]n3)cc(N3CCN(C)CC3)n2)on1 [XL228],17836.6,39819.2,0.0664,0.0745,0.891,XL228*,–
